Consider four compounds from patent US12662470B2, “Hydroxy and (halo)alkoxy substituted tetrahydrofurans as modulators of sodium channels” (VERTEX PHARMACEUTICALS INCORPORATED, priority 2021, dated 2026).

pIC50: −log10 of the molar value.

Sequence of human NaV 1.8 (Q9Y5Y9 126-1722 limits assumed): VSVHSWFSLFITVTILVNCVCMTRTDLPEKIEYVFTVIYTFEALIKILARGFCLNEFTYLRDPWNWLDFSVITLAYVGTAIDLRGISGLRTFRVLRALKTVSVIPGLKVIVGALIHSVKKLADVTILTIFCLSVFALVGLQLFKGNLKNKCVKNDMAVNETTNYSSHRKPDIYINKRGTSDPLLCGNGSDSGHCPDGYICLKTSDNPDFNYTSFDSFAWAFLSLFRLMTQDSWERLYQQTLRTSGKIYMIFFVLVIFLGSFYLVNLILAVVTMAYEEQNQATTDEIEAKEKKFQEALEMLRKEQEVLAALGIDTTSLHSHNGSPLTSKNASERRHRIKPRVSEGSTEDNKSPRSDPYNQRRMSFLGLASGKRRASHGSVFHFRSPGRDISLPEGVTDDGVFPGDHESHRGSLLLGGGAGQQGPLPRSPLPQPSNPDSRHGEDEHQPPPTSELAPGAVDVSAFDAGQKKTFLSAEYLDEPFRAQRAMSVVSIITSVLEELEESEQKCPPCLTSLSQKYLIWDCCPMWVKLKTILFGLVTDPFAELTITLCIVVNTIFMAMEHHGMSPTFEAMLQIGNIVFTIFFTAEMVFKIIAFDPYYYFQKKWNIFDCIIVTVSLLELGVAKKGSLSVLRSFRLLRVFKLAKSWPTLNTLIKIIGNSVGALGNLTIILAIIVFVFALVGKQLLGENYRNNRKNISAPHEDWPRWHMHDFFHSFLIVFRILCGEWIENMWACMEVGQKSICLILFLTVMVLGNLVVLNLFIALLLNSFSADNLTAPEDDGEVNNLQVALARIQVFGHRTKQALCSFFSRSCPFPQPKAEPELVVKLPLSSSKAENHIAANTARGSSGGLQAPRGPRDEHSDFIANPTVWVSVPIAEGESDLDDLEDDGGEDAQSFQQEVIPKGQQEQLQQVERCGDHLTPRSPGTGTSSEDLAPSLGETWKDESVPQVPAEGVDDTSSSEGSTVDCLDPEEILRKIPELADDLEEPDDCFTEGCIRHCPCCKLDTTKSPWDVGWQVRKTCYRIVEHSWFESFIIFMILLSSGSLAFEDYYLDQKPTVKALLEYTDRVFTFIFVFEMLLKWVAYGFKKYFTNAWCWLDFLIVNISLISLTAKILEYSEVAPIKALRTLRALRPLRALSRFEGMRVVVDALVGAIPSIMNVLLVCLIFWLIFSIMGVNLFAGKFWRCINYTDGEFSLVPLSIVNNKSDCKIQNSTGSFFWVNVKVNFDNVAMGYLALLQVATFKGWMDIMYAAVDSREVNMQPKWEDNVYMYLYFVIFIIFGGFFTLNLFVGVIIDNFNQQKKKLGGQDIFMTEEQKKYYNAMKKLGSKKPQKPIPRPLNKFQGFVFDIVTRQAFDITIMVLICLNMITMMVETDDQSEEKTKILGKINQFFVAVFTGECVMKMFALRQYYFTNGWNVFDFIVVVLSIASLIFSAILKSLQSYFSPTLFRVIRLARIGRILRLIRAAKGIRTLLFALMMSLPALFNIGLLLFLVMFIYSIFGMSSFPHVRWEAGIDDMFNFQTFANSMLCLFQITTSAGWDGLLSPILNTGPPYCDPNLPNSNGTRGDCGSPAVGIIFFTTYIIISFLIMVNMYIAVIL

The target in the assay is human NaV 1.8 (Homo sapiens, UniProt Q9Y5Y9). Nature of the assay: E-VIPR Assay Detecting and Measuring NaV Inhibition Properties. In kind it is cell-based. Particulars: HEK cells expressing a truncated form of human NaV 1.8; compound number without "*" (not marked as run in the presence of human serum). From the text:
Sodium ion channels are voltage-dependent proteins that can be activated by inducing membrane voltage changes by applying electric fields. The electrical stimulation instrument and methods of use, referred to as E-VIPR, are described in International Publication No. WO 2002/008748 A3 and C.-J. Huang et al. Characterization of voltage-gated sodium channel blockers by electrical stimulation and fluorescence detection of membrane potential, 24 Nature Biotech. 439-46 (2006), both of which are incorporated by reference in their entirety. The instrument comprises a microtiter plate handler, an optical system for exciting the coumarin dye while simultaneously recording the coumarin and oxonol emissions, a waveform generator, a current- or voltage-controlled amplifier, and parallel electrode pairs that are inserted into assay plate wells. Under integrated computer control, this instrument passes user-programmed electrical stimulus protocols to cells within the wells of the microtiter plate.
16-20 hours prior to running the assay on E-VIPR, HEK cells expressing a truncated form of human NaV 1.8 with full channel activity were seeded into microtiter 384-well plates, pre-coated with matrigel, at a density of 25,000 cells per well. 2.5-5% KIR2.1 Bacmam virus was added to the final cell suspension before seeding into cell plates. HEK cells were grown in Dulbecco's Modified Eagle's Medium (DMEM) supplemented with 10% FBS (Fetal Bovine Serum, qualified; Sigma #F4135), 1% NEAA (Non-Essential Amino Acids, Gibco #11140), 1% HEPES (Gibco #15630), 1% Pen-Strep (Penicillin-Streptomycin; Gibco #15140) and 5 μg/ml Blasticidin (Gibco #R210-01). Cells were expanded in vented cap cell culture flasks, with 90-95% humidity and 5% CO2.
Reagents and Stock Solutions:
• 100 mg/mL Pluronic F-127 (Sigma #P2443), in dry DMSO • Compound Plates: Corning 384-well Polypropylene Round Bottom #3656 • Cell Plates: 384-well tissue culture treated plates (Greiner #781091-2B)
2.5-5% KIR 2.1 Bacmam virus (produced in-house), prepared as described in Section 3.3 of J. A. Fornwald et al., Gene Expression in Mammalian Cells Using BacMam, a Modified Baculovirus System, 1350 Methods in Molecular Biology 95-116 (2016), the entire contents of which are incorporated by reference. The concentration used can be dependent on viral titer of each batch.
5 mM DiSBAC6(3), a voltage sensitive oxonol acceptor (CAS number 169211-44-3; 5-[3-(1,3-dihexylhexahydro-4,6-dioxo-2-thioxo-5-pyrimidinyl)-2-propen-1-ylidene]-1,3-dihexyldihydro-2-thioxo-4,6(1H,5H)-pyrimidinedione), in dry DMSO. The preparation of DiSBAC6(3) is analogous to that of DiSBAC4(3) as described in Voltage Sensing by Fluorescence Resonance Energy Transfer in Single Cells, Gonzalez, J. E. and Tsien, R. Y. (1995) Biophys. J. 69, 1272-1280.
5 mM CC2-DMPE, a commercially available membrane-bound coumarin phospholipid FRET donor (ThermoFisher Scientific catalog number K1017, CAS number 393782-57-5; tetradecanoic acid, 1,1′-[(1R)-1-[8-(6-chloro-7-hydroxy-2-oxo-2H-1-benzopyran-3-yl)-3-hydroxy-3-oxido-8-oxo-2,4-dioxa-7-aza-3-phosphaoct-1-yl]-1,2-ethanediyl] ester) was prepared in dry DMSO. See also, Improved indicators of cell membrane potential that use fluorescence resonance energy transfer, Gonzalez, J. E. and Tsien, R. Y. (1997) Chem. Biol. 4, 269-277.
Voltage Assay Background Suppression Compound (VABSC-1) is prepared in H2O (89-363 mM, range used to maintain solubility)
Human Serum (HS, Millipore #S1P1-01KL, or Sigma SLBR5469V and SLBR5470V as a 50%/50% mixture, for 25% assay final concentration)
• Sodium Chloride 160 mM (9.35 g/L), Potassium Chloride, 4.5 mM (0.335 g/L), Glucose 10 mM (1.8 g/L), Magnesium Chloride (Anhydrous) 1 mM (0.095 g/L), Calcium Chloride 2 mM (0.222 g/L), HEPES 10 mM (2.38 g/L) in water. […]
The term pIC50 denotes the negative decadic logarithm of the IC50, by convention in mol/L. For the compound `COc1c([C@@H]2[C@H](OC(C)C)[C@H](C)O[C@H]2C(=O)Nc2ccc([C@@H](O)CO)nc2)ccc(F)c1F` [Compound 16, (2R,3R,4S,5S)-3-(3,4-difluoro-2-methoxyphenyl)-N-(6-((R)-1,2-dihydroxyethyl)pyridine-3-yl)-4-isopropoxy-5-methyltetrahydrofuran-2-carboxamide], the pIC50 was at most 6.00.
Consider `COc1c([C@@H]2[C@H](OC(C)C)[C@H](C)O[C@H]2C(=O)Nc2ccc(CO)nc2)ccc(F)c1F` [Compound 17, (2R,3R,4S,5S)-3-(3,4-difluoro-2-methoxyphenyl)-N-(6-(hydroxymethyl)pyridin-3-yl)-4-isopropoxy-5-methyltetrahydrofuran-2-carboxamide], for which the pIC50 was at most 6.00.
In the case of `COc1c([C@@H]2[C@H](OC)[C@H](C(C)C)O[C@H]2C(=O)Nc2ccnc(C(N)=O)c2)ccc(F)c1F` [Compound 24, 4-((2R,3R,4S,5S)-3-(3,4-difluoro-2-methoxyphenyl)-5-isopropyl-4-methoxytetrahydrofuran-2-carboxamido)picolinamide], the pIC50 was above 8.00.
The figure for `CCO[C@H]1[C@@H](c2ccc(F)c(F)c2OC)[C@H](C(=O)Nc2ccnc(C(N)=O)c2)O[C@@]1(C)C(F)(F)F` [Compound 25, 4-((2R,3R,4S,5R)-3-(3,4-difluoro-2-methoxyphenyl)-4-ethoxy-5-methyl-5-(trifluoromethyl)tetrahydrofuran-2-carboxamido)picolinamide] is above 8.00.
